# Measured values as given in patent US4049795A, “Treatment of hemorrhagic shock” (priority 1974, dated 1977).
# Assays:
# [1] = test system: Rabbit ileum; assay: Isolated rabbit ileum, tonus
# Procedure: Fragments of the ileum were suspended in a 75 ml isolated organ tank containing Tyrode's solution maintained at 37° C. by a thermostat and oxygenated by bubbling pure oxygen at a constant rate of flow. The movement of the organ were recorded by means of a lever on a cylinder rotating at a known constant speed.
# [2] = pH of a solution in distilled water; type: physicochemical
# [3] = test system: cerebral anoxemia by clamping; assay: Cerebral anoxemia by clamping in rabbits; type: in vivo, rabbit; conditions: 1 g/kg intravenously
# Procedure: The tests were done on rabbits weighing an average of 2.5 kg. The fastening of the cranial electrodes was done under local anaesthesia with procaine, as was the placing of the catheters in a femoral artery to record the blood pressure. The tracheotomies and tracheal intubations were also done under local anaesthesia using procaine. The temperature was maintained at around 38° C. Three types of anoxemia were investigated; 1. Elective cerebral anoxemia by stopping cerebral circulation (anoxemia by clamping): Artificial ventilation was set up by an apparatus allowing constant volume and speed of respiration. An upper sternatomy of the manubrium was carried out; the left sub-[…] artery, the left carotid artery and the right trucus brachiocephalicus were isolated. The clamps were then put into place according to the technique described by […] and LABORIT (Conference of d Agressologie Cycle, Vol. 1, p. 15 ff of 1959). The artificially ventilated animal preserved good peripheral cardiovascular dynamics during the ischemia and supported 120 seconds of clamping without severe hypotension. 3. Nitrogen anoxemia: The animal was curarized and artifically ventilated as indicated above. Anoxemia was obtained by connecting a nitrogen gasbag to the air intake of the BEAUDOUIN apparatus; general non-hypercapnic anoxemia occurred. Air was […] seconds. […] A latency of 30 minutes was observed before anoxemia was caused.
# [4] = test system: Hypercapnic anoxemia; assay: Hypercapnic anoxemia in rabbits; type: in vivo, rabbit
# Procedure: The tests were done on rabbits weighing an average of 2.5 kg. The fastening of the cranial electrodes was done under local anaesthesia with procaine, as was the placing of the catheters in a femoral artery to record the blood pressure. The tracheotomies and tracheal intubations were also done under local anaesthesia using procaine. The temperature was maintained at around 38° C. Three types of anoxemia were investigated; 2. Hypercapnic anoxemia: The above-mentioned artificial ventilation of the animal after curarization was stopped. Stopping of the cerebral electrogenesis was obtained after an average of 120 seconds. 3. Nitrogen anoxemia: The animal was curarized and artifically ventilated as indicated above. Anoxemia was obtained by connecting a nitrogen gasbag to the air intake of the BEAUDOUIN apparatus; general non-hypercapnic anoxemia occurred. Air was […] seconds. […] A latency of 30 minutes was observed before anoxemia was caused.
# [5] = test system: hepatic and renal circulation
# [6] = test system: electro-cardiograms; conditions: in vivo
# [7] = test system: cerebral lactate edema; conditions: edema induced by mechanical, biological or pharmacological means; cited from earlier work
# [8] = test system: hemorrhagic shock; assay: Irreversible hemorrhagic shock (WIGGERS) in dogs
# Procedure: These experiments were carried out with dogs. […] Spontaneous reinjection, by progressive circulatory failure, of a quarter of the mass of blood effused during the second hemmorhage, was chosen as the irreversibility criterion. The following parameters were measured: pH, arterial and venous CO2 pressure (with a radiometertype apparatus), lactacidemia, pyruvicemia and glycemia (by the enzymatic method), and kalemia (with a flame photometer). Samples were taken from the dogs before irreversibility, immediately after, one hour 11/2 hours and 2R hours thereafter. The blood pressure was followed by femoral intubation and recorded with an apparatus providing mean arterial bloodpressure readings.
smiles,measurement,setting,value
O=C(CO)CO [dihydroxyacetone],tonus of ileum,[1]; 50 mg to 75 ml of survival medium,only a slight and transient tonus increase
same,tonus of ileum,[1]; dose printed as 18,a momentary hypertonia
same,effect of potassium chloride in the presence of dihydroxyacetone,[1]; rabbit ileum,decreases only the contractile amplitude without affecting the tonus
same,effect on hypertonia due to acetylcholine,"[1]; rabbit ileum, acetylcholine",did not change
same,effect on hypertonia caused by adrenalin,"[1]; rabbit ileum, adrenalin",clearly decreased
same,effect on action of nicotine,"[1]; rabbit ileum, nicotine",clearly diminished
same,effect on hypertonic activity of serotonin,"[1]; rabbit ileum, serotonin",The same observation was made with serotonin
same,effect on hypertonic action of sodium lactate,"[1]; rabbit ileum, sodium lactate",influenced to only a small degree
same,effect on hypertonic activity of reducing agents,[1]; vitamin C or amino-ethyl isothiouronium,disappeared
same,pH of a solution in distilled water,[2],4
same,"recuperation latency, anoxemia by clamping",[3],no improvement at all
same,"recuperation time, anoxemia by clamping",[3],no improvement
same,"survival time, anoxemia by clamping",[3]; prior perfusion,minor
same,"recuperation latency, hypercapnic anoxemia",[4]; 1 g/kg intravenously,an improvement which was difficult to measure
same,"survival time, hypercapnic anoxemia","[4]; 1 g/kg intravenously, prior perfusion",pronounced
same,"recuperation time, hypercapnic anoxemia","[4]; 1 g/kg intravenously, result in words",a clear improvement
same,"recuperation time, hypercapnic anoxemia",[4]; for 2 minutes of anoxemia,≤ 30 s
same,blood CO2 pressure,[5]; in vivo,stable
same,blood pH without neutralisation of the solution,[5]; in vivo,a slight fall in the blood pH
same,average pressure and pulse pressure,[5]; intravenous perfusion of 2 g/kg,A slight increase in the average pressure and a widening of the pulse pressure
same,hepatic and renal flows,"[5]; rapid perfusion, 1 g/kg",variably increased
same,hepatic flow,"[5]; rapid perfusion, 1 g/kg",nearly doubled
same,change in the electro-cardiograms,[6],no change in the electro-cardiograms within standard deviations
same,protection against cerebral lactate edema,[7],will protect a rat against cerebral lactate edema
same,duration of the rise in blood pressure,[8]; 4 to 7 g/kg,maintained for several hours
same,arterial and venous CO2 pressures and pH in hemorrhagic shock,[8]; 4 to 7 g/kg over about 3 hours,developed in a similar manner to those existing in the control animals
same,glycemia in hemorrhagic shock,[8]; 4 to 7 g/kg over about 3 hours,rose above its initial level
same,kalemia in hemorrhagic shock,[8]; 4 to 7 g/kg over about 3 hours,rose above that of the control animals
same,lactacidemia in hemorrhagic shock,[8]; 4 to 7 g/kg over about 3 hours,reached values higher than in the control animals
same,pyruvicemia in hemorrhagic shock,[8]; 4 to 7 g/kg over about 3 hours,continued to rise
same,average difference in blood pressure between end of reinjection of effused blood and after the perfusion,"[8]; 4 to 7 g/kg, average",21.5 mm Hg
same,blood pressure elevation or restoration compared with hypertonic glucose,[8]; comparison in words,appears to be more active than hypertonic glucose
same,effect on the blood pressure in hemorrhagic shock,[8]; irreversible shock,favorable effect on the blood pressure
